Test results from PubChem BioAssay AID328 (DTP/NCI, 2004).
Where “and” joins values, the source holds several entries; their conditions need not be identical. Equal entries are not always repeated. Toxic doses and inconclusive results are not listed. How the source made its calls: active means survival T/C of 150% or more; inactive means T/C below 125% in these data.

System: BDF1 mice, P388 leukemia ip, median survival T/C
Test: NCI In Vivo Anticancer Drug Screen. Data for tumor model P388 Leukemia (intraperitoneal) in B6D2F1 (BDF1) mice
Details: endpoint: median survival time, higher = longer survival
How it was run: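 Antitumour effect was judged in vivo: survival in drug-treated mice, normalised to that of vehicle-dosed controls, gives the reported T/C.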

[1] = dose: 100.0 mg/kg/injection, schedule: Q04DX003 (ip), vehicle: saline with Tween-80
[2] = dose: 200.0 mg/kg/injection, schedule: Q04DX003 (ip), vehicle: saline with Tween-80
[3] = dose: 25.0 mg/kg/injection, schedule: Q04DX003 (ip), vehicle: saline with Tween-80
[4] = dose: 50.0 mg/kg/injection, schedule: Q01DX009 (ip), vehicle: saline with Tween-80
[5] = dose: 100.0 mg/kg/injection, schedule: Q01DX009 (ip), vehicle: saline with Tween-80
[6] = dose: 100.0 mg/kg/injection, schedule: Q04DX002 (ip), vehicle: saline with Tween-80
[7] = dose: 12.5 mg/kg/injection, schedule: Q01DX009 (ip), vehicle: saline with Tween-80
[8] = dose: 25.0 mg/kg/injection, schedule: Q01DX009 (ip), vehicle: saline with Tween-80
[9] = dose: 200.0 mg/kg/injection, schedule: Q01DX009 (ip), vehicle: saline with Tween-80
[10] = dose: 400.0 mg/kg/injection, schedule: Q04DX003 (ip), vehicle: saline with Tween-80
[11] = dose: 6.25 mg/kg/injection, schedule: Q01DX009 (ip), vehicle: saline

Measured: T/C

C[n+]1cccc2c3ccccc3c(-c3ccccc3)cc21
inactive: dose: 0.39 mg/kg/injection, schedule: Q01DX009 (ip), vehicle: water 101 % of control | dose: 0.78 mg/kg/injection, schedule: Q01DX009 (ip), vehicle: water 90 % of control and 106 % of control | dose: 1.56 mg/kg/injection, schedule: Q01DX009 (ip), vehicle: water 89 % of control and 94 % of control and 103 % of control | dose: 3.12 mg/kg/injection, schedule: Q01DX009 (ip), vehicle: water 87 % of control and 93 % of control and 116 % of control | dose: 6.25 mg/kg/injection, schedule: Q01DX009 (ip), vehicle: water 98 % of control and 104 % of control and 122 % of control | dose: 6.25 mg/kg/injection, schedule: Q04DX003 (ip), vehicle: water 90 % of control | dose: 12.5 mg/kg/injection, schedule: Q01DX009 (ip), vehicle: water 100 % of control and 111 % of control | dose: 12.5 mg/kg/injection, schedule: Q04DX003 (ip), vehicle: water 103 % of control | dose: 25.0 mg/kg/injection, schedule: Q04DX003 (ip), vehicle: water 112 % of control | dose: 50.0 mg/kg/injection, schedule: Q01DX009 (ip), vehicle: water 113 % of control

CCCCSc1ncnc2nc[nH]c12
inactive: [1] 104 % of control | [2] 100 % of control

CCCN1c2ccccc2Sc2ccccc21
inactive: [3] 100 % of control | dose: 50.0 mg/kg/injection, schedule: Q04DX003 (ip), vehicle: saline with Tween-80 90 % of control | [1] 90 % of control | [2] 90 % of control

Cc1cccc2nc(Oc3ccccc3)nc(=O)n12
inactive: [4] 96 % of control | [5] 99 % of control

Cc1cc(C=O)c(O)c(C=O)c1
inactive: [6] 112 % of control | dose: 200.0 mg/kg/injection, schedule: Q04DX002 (ip), vehicle: saline with Tween-80 110 % of control | dose: 400.0 mg/kg/injection, schedule: Q04DX002 (ip), vehicle: saline with Tween-80 109 % of control

C/C(=N\N)c1ccc(Cl)cc1
inactive: dose: 6.25 mg/kg/injection, schedule: Q01DX009 (ip), vehicle: saline with Tween-80 100 % of control | [7] 104 % of control | [8] 95 % of control

Nc1nc(CNc2ccc(Cl)cc2)nc(Nc2cccc(Cl)c2)n1
inactive: dose: 100.0 mg/kg/injection, schedule: Q01DX001 (ip), vehicle: saline sonified 100 % of control | dose: 200.0 mg/kg/injection, schedule: Q01DX001 (ip), vehicle: saline sonified 105 % of control | dose: 400.0 mg/kg/injection, schedule: Q01DX001 (ip), vehicle: saline sonified 100 % of control

O=C1c2ccccc2C(=O)N1CCCn1c2ccccc2c2cnccc21
inactive: [5] 105 % of control | [1] 95 % of control | [9] 90 % of control | [2] 100 % of control | dose: 400.0 mg/kg/injection, schedule: Q01DX009 (ip), vehicle: saline with Tween-80 110 % of control | [10] 90 % of control

COc1cc(NCCCCCCCNC(C)C)c2nccc(C)c2c1
inactive: dose: 3.13 mg/kg/injection, schedule: Q01DX009 (ip), vehicle: saline 105 % of control | [11] 98 % of control and 115 % of control | dose: 25.0 mg/kg/injection, schedule: Q01DX009 (ip), vehicle: saline 109 % of control and 116 % of control

CN(C)C1C(=O)C(C(=O)NCNC(CCS(C)=O)C(=O)O)=C(O)C2(O)C(=O)C3=C(O)c4c(O)cccc4C(C)(O)C3CC12 (stereo unspecified)
inactive: dose: 100.0 mg/kg/injection, schedule: Q01DX001 (ip), vehicle: saline 100 % of control | dose: 200.0 mg/kg/injection, schedule: Q01DX001 (ip), vehicle: saline 90 % of control | dose: 400.0 mg/kg/injection, schedule: Q01DX001 (ip), vehicle: saline 86 % of control

CN(C)C(=O)CCCCC(=O)N(C)C
inactive: dose: 1.0 mg/kg/injection, schedule: Q01DX001 (ip), vehicle: saline 96 % of control | dose: 2.0 mg/kg/injection, schedule: Q01DX001 (ip), vehicle: saline 110 % of control | dose: 4.0 mg/kg/injection, schedule: Q01DX001 (ip), vehicle: saline 106 % of control | dose: 8.0 mg/kg/injection, schedule: Q01DX001 (ip), vehicle: saline 102 % of control | dose: 16.0 mg/kg/injection, schedule: Q01DX001 (ip), vehicle: saline 96 % of control | dose: 32.0 mg/kg/injection, schedule: Q01DX001 (ip), vehicle: saline 100 % of control | dose: 64.0 mg/kg/injection, schedule: Q01DX001 (ip), vehicle: saline 95 % of control | dose: 128.0 mg/kg/injection, schedule: Q01DX001 (ip), vehicle: saline 102 % of control

CC1=CC(=O)NC1=O
inactive: dose: 4.3 mg/kg/injection, schedule: Q01DX009 (ip), vehicle: saline 114 % of control | dose: 6.4 mg/kg/injection, schedule: Q01DX009 (ip), vehicle: saline 102 % of control | dose: 9.6 mg/kg/injection, schedule: Q01DX009 (ip), vehicle: saline 117 % of control | dose: 14.0 mg/kg/injection, schedule: Q01DX009 (ip), vehicle: saline 123 % of control

CN(Cc1cnc2nc(N)nc(N)c2n1)c1c(Cl)cc(C(=O)NC(CCC(=O)O)C(=O)O)cc1Cl (stereo unspecified)
inactive: [5] 95 % of control | [9] 86 % of control
active: dose: 17.5 mg/kg/injection, schedule: Q01DX009 (ip), vehicle: saline 213 % of control | dose: 35.0 mg/kg/injection, schedule: Q01DX009 (ip), vehicle: saline 270 % of control | dose: 70.0 mg/kg/injection, schedule: Q01DX009 (ip), vehicle: saline 270 % of control | dose: 264.0 mg/kg/injection, schedule: Q04DX003 (ip), vehicle: saline with Tween-80 175 % of control | [10] 241 % of control | dose: 600.0 mg/kg/injection, schedule: Q04DX003 (ip), vehicle: saline with Tween-80 250 % of control

CC(/C=C/C1(C)C(C)CCC(=O)C1C)=C\Cc1c(O)c(Cl)c(C)c(C=O)c1O (stereo unspecified)
inactive: dose: 12.5 mg/kg/injection, schedule: Q04DX003 (ip), vehicle: saline with Tween-80 92 % of control | [3] 90 % of control

C[P+]1(C)CCc2c1ccc1ccccc21
inactive: [7] 104 % of control | [8] 100 % of control | [4] 104 % of control

CC1=C(Br)C(=O)C(c2c(C)cc(C)cc2C)=C(Br)C1=O
inactive: [11] 86 % of control | dose: 12.5 mg/kg/injection, schedule: Q01DX009 (ip), vehicle: saline 93 % of control | dose: 12.5 mg/kg/injection, schedule: Q04DX003 (ip), vehicle: saline 104 % of control | dose: 25.0 mg/kg/injection, schedule: Q04DX003 (ip), vehicle: saline 95 % of control | dose: 50.0 mg/kg/injection, schedule: Q04DX003 (ip), vehicle: saline 105 % of control | dose: 100.0 mg/kg/injection, schedule: Q04DX003 (ip), vehicle: saline 97 % of control | dose: 200.0 mg/kg/injection, schedule: Q04DX003 (ip), vehicle: saline 95 % of control

O=C(NC(=O)c1c(F)cccc1F)Nc1ncc(Br)cc1Br
inactive: [8] 90 % of control | [4] 97 % of control | [5] 96 % of control

COC(=O)c1nc2c(C)nc(N(C)C)nc2[nH]c1=O
inactive: [1] 101 % of control | [2] 107 % of control | [10] 100 % of control

CCN1c2ccccc2CC(CCN(C(C)C)C(C)C)(C(N)=O)c2ccccc21 (stereo unspecified)
inactive: [6] 108 % of control

O=C(Nc1ccccc1)Nn1cnc2ccccc2c1=O
inactive: [1] 90 % of control | [2] 100 % of control | [10] 100 % of control

CN(C)c1cc2nc[nH]c(=O)c2cc1[N+](=O)[O-]
inactive: dose: 100.0 mg/kg/injection, schedule: Q04DX003 (ip), vehicle: Klucel (hydroxypropylcellulose) (HPC) 116 % of control

CCOC(=O)c1[nH]cnc1/N=N/N(C)C
active: dose: 26.4 mg/kg/injection, schedule: Q01DX009 (ip), vehicle: saline with Tween-80 175 % of control
inactive: dose: 60.0 mg/kg/injection, schedule: Q01DX009 (ip), vehicle: saline with Tween-80 87 % of control

O=[N+]([O-])c1ccc(Oc2cc(Cl)c(Cl)cc2Cl)c([N+](=O)[O-])c1
inactive: dose: 200.0 mg/kg/injection, schedule: Q01DX009 (ip), vehicle: saline sonified 90 % of control | dose: 400.0 mg/kg/injection, schedule: Q01DX009 (ip), vehicle: saline sonified 90 % of control

CCOC(=O)C(Cc1ccc(N(CCCl)CCCl)cc1)NC=O (stereo unspecified)
active: dose: 66.0 mg/kg/injection, schedule: Q04DX003 (ip), vehicle: saline with Tween-80 181 % of control | [1] 200 % of control and 209 % of control | dose: 150.0 mg/kg/injection, schedule: Q04DX003 (ip), vehicle: saline with Tween-80 268 % of control and 272 % of control
inactive: dose: 375.0 micrograms/kg/injection, schedule: Q04DX003 (ip), vehicle: saline with Tween-80 110 % of control | dose: 750.0 micrograms/kg/injection, schedule: Q04DX003 (ip), vehicle: saline with Tween-80 120 % of control
